# Key:
# Format in all cases: in vivo
# [1] = tested on: ryegrass, Italian (Italian ryegrass, Lolium multiflorum); assay: Test A postemergence; conditions: postemergence
# Summary of the method: (§1)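 Compounds were formulated in a non-phytotoxic solvent mixture with surfactant and applied as a preemergence directed soil spray after seeding, or sprayed postemergence over plants 2 to 10 cm tall at the one- to two-leaf stage. Evaluation after about 10 d compared treated with untreated controls, using a scale from 0 (no effect) to 100 (complete control).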
# [2] = tested on: pigweed (Amaranthus retroflexus); assay: Test A postemergence; conditions: postemergence
# Summary of the method: as §1
# corn (Zea mays) = assay: Test A postemergence; conditions: postemergence
# Summary of the method: as §1
# [3] = tested on: giant foxtail (Setaria faberii); assay: Test A postemergence; conditions: postemergence
# Summary of the method: as §1
# [4] = tested on: wheat (Triticum aestivum); assay: Test A postemergence; conditions: postemergence
# Summary of the method: as §1
# [5] = tested on: blackgrass (Alopecurus myosuroides); assay: Test A postemergence; conditions: postemergence
# Summary of the method: as §1
# Kochia (Kochia scoparia) [6] = assay: Test A postemergence; conditions: postemergence
# Summary of the method: as §1
# [7] = tested on: Galium (catchweed bedstraw, Galium aparine); assay: Test A postemergence; conditions: postemergence
# Summary of the method: as §1
# [8] = tested on: barnyardgrass (Echinochloa crus-galli); assay: Test A postemergence; conditions: postemergence
# Summary of the method: as §1
# [9] = tested on: ragweed (common ragweed, Ambrosia elatior); assay: Test A postemergence; conditions: postemergence
# Summary of the method: as §1
# [10] = tested on: ryegrass, Italian (Italian ryegrass, Lolium multiflorum); assay: Test A preemergence
# Summary of the method: as §1
# [11] = tested on: pigweed (Amaranthus retroflexus); assay: Test A preemergence
# [12] = tested on: giant foxtail (Setaria faberii); assay: Test A preemergence
# Summary of the method: as §1
# Kochia (Kochia scoparia) [13] = assay: Test A preemergence
# Summary of the method: as §1
# [14] = tested on: barnyardgrass (Echinochloa crus-galli); assay: Test A preemergence
# Summary of the method: as §1
# [15] = tested on: ragweed (common ragweed, Ambrosia elatior); assay: Test A preemergence
# Summary of the method: as §1
# [16] = tested on: sedge, umbrella (small-flower umbrella sedge, Cyperus difformis); assay: Test B flooded paddy test; conditions: Flood, 250 g ai/ha; 0 to 100 scale where 0 is no effect and 100 is complete control; 13 to 15 d
# Summary of the method: (§2)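 Flooding to 3 cm over soil accompanied treatment, which consisted of adding compound to the standing water around 2-leaf plants; depth was then maintained. Visual assessment versus controls followed at 13 to 15 d (scale 0–100, 0 meaning no effect).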
# [17] = tested on: ducksalad (Heteranthera limosa); assay: Test B flooded paddy test; conditions: Flood, 250 g ai/ha; 0 to 100 scale where 0 is no effect and 100 is complete control; 13 to 15 d
# Summary of the method: as §2
# rice (Oryra sativa) = assay: Test B flooded paddy test; conditions: Flood, 250 g ai/ha; 0 to 100 scale where 0 is no effect and 100 is complete control; 13 to 15 d
# Summary of the method: as §2
# [18] = tested on: barnyardgrass (Echinochloa crus-galli); assay: Test B flooded paddy test; conditions: Flood, 250 g ai/ha; 0 to 100 scale where 0 is no effect and 100 is complete control; 13 to 15 d
# Summary of the method: as §2
# [19] = 125 g ai/ha, visual injury rating on 0 to 100 scale (0 no effect, 100 complete control), approx. 10 d
# [20] = 500 g ai/ha, 0 to 100 scale, 0 no effect, 100 complete control
# [21] = 125 g ai/ha, preemergence, 0 to 100 scale (0 no effect, 100 complete control)
# [22] = Preemergence, 500 g ai/ha, visual injury approx. 10 d
compound,measurement,setting,value
CN1CC(c2ccc(C(F)(F)F)c(F)c2)C(C(=O)Nc2ccccc2F)C1=O (stereo not drawn) [Compound 399],"Ryegrass, Italian plant response rating",[1]; [19],40
same,"Plant response rating, Ryegrass, Italian",[1]; [20],40
same,Pigweed plant response rating,[2]; [19],30
same,"Plant response rating, Pigweed",[2]; [20],40
same,Corn plant response rating,corn (Zea mays); [19],50
same,"Plant response rating, Corn",corn (Zea mays); [20],70
same,"Foxtail, Giant plant response rating",[3]; [19],90
same,"Plant response rating, Foxtail, Giant",[3]; [20],90
same,Wheat plant response rating,[4]; [19],40
same,"Plant response rating, Wheat",[4]; [20],60
same,Blackgrass plant response rating,[5]; [19],40
same,"Plant response rating, Blackgrass",[5]; [20],60
same,Kochia plant response rating,Kochia (Kochia scoparia) [6]; [19],50
same,"Plant response rating, Kochia",Kochia (Kochia scoparia) [6]; [20],60
same,Galium plant response rating,[7]; [19],50
same,"Plant response rating, Galium",[7]; [20],50
same,Barnyardgrass plant response rating,[8]; [19],90
same,"Plant response rating, Barnyardgrass",[8]; [20],90
same,Ragweed plant response rating,[9]; [19],0
same,"Plant response rating, Ragweed",[9]; [20],0
same,"Plant response rating, Ryegrass, Italian",[10]; [21],20
same,"Ryegrass, Italian plant response rating (0 to 100 scale, 0 is no effect, 100 is complete control)",[10]; [22],60
same,"Plant response rating, Pigweed",[11]; [21],70
same,"Pigweed plant response rating (0 to 100 scale, 0 is no effect, 100 is complete control)",[11]; [22],90
same,"Plant response rating, Foxtail, Giant",[12]; [21],90
same,"Foxtail, Giant plant response rating (0 to 100 scale, 0 is no effect, 100 is complete control)",[12]; [22],90
same,"Plant response rating, Kochia",Kochia (Kochia scoparia) [13]; [21],80
same,"Kochia plant response rating (0 to 100 scale, 0 is no effect, 100 is complete control)",Kochia (Kochia scoparia) [13]; [22],80
same,"Plant response rating, Barnyardgrass",[14]; [21],90
same,"Barnyardgrass plant response rating (0 to 100 scale, 0 is no effect, 100 is complete control)",[14]; [22],90
same,"Plant response rating, Ragweed",[15]; [21],50
same,"Ragweed plant response rating (0 to 100 scale, 0 is no effect, 100 is complete control)",[15]; [22],50
same,"Plant response rating, Sedge, Umbrella",[16],0
same,"Plant response rating, Ducksalad",[17],100
same,"Plant response rating, Rice",rice (Oryra sativa),0
same,"Plant response rating, Barnyardgrass",[18],65
